Measured values reported in US20220193111A1, “Method of Treatment” (The University Court of the University of Edinburgh, priority 2018, published 2022).

System: HUVECs treated with TNF-α/IL-1β
Assay: Rescue of TNF-α/IL-1β-induced EndMT in HUVECs
Format: cell-based, human
Details: 10 μM, HUVECs with TNF-α/IL-1β 6 days
Protocol: Human umbilical vein ECs (HUVECs; Lonza) were grown in EGM-2 (comprising EBM-2 with growth factors and other supplements) with 2% Foetal Bovine Serum. Confluent HUVECs were treated with 10 ng/ml TNF-α, IL-1β, TGFβ2 (PeproTech); medium and cytokines were changed every two days. SB431542 (Tocris) has been used at the dose of 10 μM. HEK293T cells (ATCC®, CRL-11268) were cultured in D-MEM with 10% FBS (Life Technologies).
Total RNA was extracted using miReasy kit (Qiagen). Real-time quantification to measure miRNAs was performed with the TaqMan miRNA reverse transcription kit and miRNA assay (Life Technology) using Lightcycler 480 (Roche). miRNAs expression was normalized to the U6 […] (snRU6). For mRNA analysis, cDNA was amplified by quantitative real-time PCR (qPCR) and normalized to 18S ribosomal RNA. Each reaction was performed in triplicate. Quantification was performed by the 2^−ΔΔCt method^52. qPCR was used to measure the expression of miR-148b (miR-148b-3p Thermo Fisher Scientific, Cat. #4426961), snRU6 (ThermoFisher Scientific, Cat. #4331182), TGFβ2, SMAD2, CD31, VE-Cadherin, COL1A1, α-SMA, SLUG, VIM, SNAIL, TWIST, ZEB1/2 and 18S rRNA. Primers are pre-designed from Sigma (KiCgStart™ Primers).
Lipofectamine RNAiMAX (Thermo Fisher Scientific) was used to transfect HUVECs with miR-148b mimic, anti-miR-148b and mimic or anti-miR control (25 nM and […], respectively final concentration) or with siRNA targeting SMAD2 (20 nM final concentration), according to the manufacturer's instructions. jetPEI-HUVECs (Polyplus) was used to transfect HUVECs with DNA plasmids. The following functional assays were performed: BrdU incorporation assay using Cell Proliferation colorimetric assay (Roche); Matrigel assay with HUVECs was performed as previously described using BD Matrigel Basement Membrane Matrix (BD Biosciences)^53.
Proteins were extracted from cultured cells or muscles by using ice-cold buffer A (50 mM Hepes, 150 mM NaCl, 1 mM EDTA, 1 mM EGTA, 25 mM NaF, 5 mM NaPPi, 1%Triton, 1% NP40, 1 mM Na3VO4, 0.25% sodium deoxycholate, 0.5 mM Na-orthovanadate, 1 mM benzamidine, 0.1 mM phenylmethylsulfonyl fluoride). Protein concentration was determined using the Bio-Rad Protein Assay Reagent (Bio-Rad Laboratories, UK). Detection of proteins by Western blot analyses was done following separation of whole cell extracts (20 μg) on SDS-polyacrylamide gels. Proteins were transferred to nitrocellulose membranes and probed with the following antibodies: TGFβ2 (Abcam, ab36495, 1:1000), SMAD2 (SantaCruz Biotechnology, Santa Cruz, Calif., USA; #3102, 1:1000), p-SMAD2 (465/467) (Cell Signaling; #3108, 1:1000); CD31 (Abcam., 1:1000), VE-Cadherin (Abcam, ab33168, 1:1000), COL1A1 (Abcam, ab138492, 1:200), FSP-1 (5100A4; Abcam, ab41532, 1:1000), SLUG (Abcam, ab27568, 1:1000), β-actin (Abcam, ab16039, 1:4000), HDAC3 (GeneTex GTX113303, 1:1000) and GAPDH (GeneTex, GT239, 1:1000) (both used as loading control). For detection, the inventors used secondary antibodies conjugated to horseradish peroxidase which were rabbit anti-mouse (Abcam, ab97046, 1:5000) and goat anti-rabbit (Abcam, ab6721, 1:10000). Detection was developed by chemiluminescence reaction (ECL) (Immunoblot, Millipore, 23225).
Cells were fixed using 4% paraformaldehyde in PBS at room temperature for 15 min. For intracellular staining, fixed cells were permeabilized using 0.5% Triton X-100 in PBS (Sigma-Aldrich) or 0.1% Saponin in PBS at room temperature for 10 min. The blocking of […] antibody activity was performed using 3% bovine serum albumin (BSA) in PBS for 1 hour. Samples were incubated with antibodies to CD31 (Abcam, ab28364, 1:50), VE-cadherin (Abcam, ab33168, 1:100), FSP-1 (Abcam, ab41532, 1:200) and COL1A1 (Abcam, ab138492, 1:100) in PBS containing 1% BSA at 4° C. overnight. […]

SMILES: NC(=O)c1ccc(-c2nc(-c3ccc4c(c3)OCO4)c(-c3ccccn3)[nH]2)cc1 [SB431542, reference compound]
- endothelial markers (CD31, VE-Cadherin) expression: did not rescue
- level of SMAD2 phosphorylation: reduced
- endothelial markers (CD31, VE-Cadherin) expression (listed as SB43152): did not restore
